Legend:
δ-opioid receptor [1] = target: T1, δ-opioid receptor (Homo sapiens (Human), UniProt P41143); test: δ-opioid receptor [35S]GTPγS functional assay, HEK-293 or CHO cells; type: biochemical
Protocol: δ-Opioid Receptor Functional Assay Procedures: Functional [^35S]GTPγS binding assays were conducted as follows. δ-Opioid receptor membrane solution was prepared by sequentially adding final concentrations of 0.026 μg/μl δ membrane protein (Perkin Elmer, Shelton, Conn.), 10 μg/mL saponin, 3 μM GDP and 0.20 nM [^35S]GTPγS to binding buffer (100 mM NaCl, 10 mM MgCl2, 20 mM HEPES, pH 7.4) on ice. The prepared membrane solution (190 μl/well) was transferred to 96-shallow well polypropylene plates containing 10 μl of 20× concentrated stock solutions of agonist prepared in DMSO. Plates were incubated for 30 min at a temperature of about 25° C. with shaking. Reactions were terminated by rapid filtration onto 96-well Unifilter GF/B filter plates (Perkin Elmer, Shelton, Conn.) using a 96-well tissue harvester (Packard) and followed by three filtration washes with 200 μl ice-cold binding buffer (10 mM NaH2PO4, 10 mM Na2HPO4, pH 7.4). Filter plates were subsequently dried at 50° C. for 1-2 hours. Fifty μl/well scintillation cocktail (Perkin Elmer, Shelton, Conn.) was added and plates were counted in a Packard Top-count for 1 min/well.
δ-Opioid Receptor Functional Data: δ GTP EC50 is the concentration of a compound providing 50% of the maximal response for the compound at a δ receptor.
δ GTP Emax (%) is the maximal effect elicited by a compound relative to the effect elicited by met-enkephalin.
In TABLE 2, activity response of certain Compounds of the Invention to the μ-, δ- and κ-opioid receptors was determined as described above for functional assays using HEK-293 or CHO cells.

δ-opioid receptor [2] = target: T1, δ-opioid receptor; test: δ-opioid receptor radioligand dose-displacement binding assay ([3H]-Naltrindole); conditions: binding affinity, [3H]-Naltrindole displacement
Protocol: δ-Opioid Receptor Binding Assay Procedures: δ-Opioid Receptor Binding Assay Procedures were conducted as follows. Radioligand dose-displacement assays used 0.2 nM [^3H]-Naltrindole (Perkin Elmer, Shelton, Conn.; 33.0 Ci/mmole) with 5 μg membrane protein (Perkin Elmer, Shelton, Conn.) in a final volume of 500 μl binding buffer (5 mM MgCl2, 5% DMSO, 50 mM Trizma base, pH 7.4). Non-specific binding was determined in the presence of 25 μM unlabeled naloxone. All reactions were performed in 96-deep well polypropylene plates for 1 hour at a temperature of about 25° C. Binding reactions were terminated by rapid filtration onto 96-well Unifilter GF/C filter plates (Perkin Elmer, Shelton, Conn.) presoaked in 0.5% polyethylenimine (Sigma). Harvesting was performed using a 96-well tissue harvester (Perkin Elmer, Shelton, Conn.) followed by five filtration washes with 500 μl ice-cold binding buffer. Filter plates were subsequently dried at 50° C. for 1-2 hours. Fifty μl/well scintillation cocktail (Perkin Elmer, Shelton, Conn.) was added and plates were counted in a Packard Top-Count for 1 min/well.

μ-opioid receptor = μ-opioid receptor (Homo sapiens (Human), UniProt P35372); test: μ-opioid receptor [35S]GTPγS functional assay, HEK-293 or CHO cells; type: biochemical

T1 sequence (P41143 whole entry, looked up): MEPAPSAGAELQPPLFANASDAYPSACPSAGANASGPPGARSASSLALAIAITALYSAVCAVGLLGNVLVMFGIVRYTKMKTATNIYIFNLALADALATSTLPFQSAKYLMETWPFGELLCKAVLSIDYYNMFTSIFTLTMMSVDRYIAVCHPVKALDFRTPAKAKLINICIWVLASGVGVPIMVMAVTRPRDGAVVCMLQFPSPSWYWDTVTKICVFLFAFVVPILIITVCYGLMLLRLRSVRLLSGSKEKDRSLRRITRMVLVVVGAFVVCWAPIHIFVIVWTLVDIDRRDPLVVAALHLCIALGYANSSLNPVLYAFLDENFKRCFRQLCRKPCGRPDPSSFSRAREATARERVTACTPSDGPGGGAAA

SMILES | EC50 (δ-opioid receptor [1]) [nM] | Ki (δ-opioid receptor [2]) [nM] | EC50 (μ-opioid receptor) [nM] | Emax (δ-opioid receptor [1]; relative to met-enkephalin, HEK-293 or CHO cells) [%]
NC(=O)c1cc2c([nH]c1=O)C[C@]13CCN(CC4CC4)[C@H](Cc4ccc(O)cc41)[C@]3(O)C2 [Compound 5, (6R,6aS,12aR)-15-(cyclopropylmethyl)-2,6a-dihydroxy-10-oxo-6,6a,7,10,11,12-hexahydro-5H-6,12a-(epiminoethano)naphtho[2,1-g]quinoline-9-carboxamide] | > 20000 | 26.4 ± 7.23 | > 20000 | 
O=C(O)c1cc2c([nH]c1=O)C[C@]13CCN(CC4CC4)[C@H](Cc4ccc(O)cc41)[C@]3(O)C2 [Compound 9, (6R,6aS,12aR)-15-(cyclopropylmethyl)-2,6a-dihydroxy-10-oxo-6,6a,7,10,11,12-hexahydro-5H-6,12a-(epiminoethano)naphtho[2,1-g]quinoline-9-carboxylic acid] | > 20000 | 18.5 ± 2.14 | > 20000 | 
O=C(O)c1cc2c([nH]c1=O)C[C@]13CCN(CC4CC4)[C@H](Cc4ccc(O)cc41)[C@@H]3C2 [Compound 11, (6R,6aR,12aS)-15-(cyclopropylmethyl)-2-hydroxy-10-oxo-6,6a,7,10,11,12-hexahydro-5H-6,12a-(epiminoethano)naphtho[2,1-g]quinoline-9-carboxylic acid] | 3.53 ± 1.5 |  | > 20000 | 36 ± 3.21

Reference: patent US8980906B2, “Pyridonemorphinan analogs and biological activity on opioid receptors” (Purdue Pharma L.P., priority 2012, dated 2015)
